Where two headings read alike, the source gives them in different places.
Assays:
[1] = Stability in sodium phosphate buffer (HPLC); assay type: physicochemical; conditions: for Half life: buffer; for half-life: buffer without microsomes and without NADPH
Method: The stability of the compound of Formula (Ia) in a sodium phosphate buffer (50 mM, pH 7.4) was evaluated using HPLC. […] Area counts of apocynin and lipoid acid were found in 0 minute samples and were generally constant until the last time point measured (see: FIGS. 11-12 and Tables 5-6).

rat liver microsomes = assay: Metabolic stability using rat liver microsomes; assay type: in vitro ADME; parameters: half-life: dose or concentration left out as unconfirmed
Excerpt: (§1) Table 7 summarizes the experimental conditions used in the studies of the metabolic stability of the compound of Formula (Ia) using rat liver microsomes. Table 8 and FIG. 13 show the results from the studies of the metabolic stability of the compound of Formula (Ia) using rat liver microsomes. [table]

[2] = test system: dog liver microsomes (DLM); assay: Metabolic stability using dog liver microsomes; assay type: in vitro ADME
Excerpt: (§2) Table 9 summarizes the experimental conditions used in the studies of the metabolic stability of the compound of Formula (Ia) using dog liver microsomes and human liver microsomes.

[3] = test system: human liver microsomes (HLM); assay: Metabolic stability using human liver microsomes; assay type: in vitro ADME
Excerpt: as §2

Sprague-Dawley rats = conditions: previous studies, cited from earlier work
[4] = test system: markers of oxidative stress (SOD1, SOD2, GSH, GSSG, H2O2, HNE-His adducts, DNA fragmentation); conditions: administered 30 min prior to I/R; same model, previously demonstrated; cited from earlier work
N27 neuronal cells = assay: DNA fragmentation ELISA after hydrogen peroxide exposure of N27 neuronal cells; assay type: cell-based; conditions: for DNA cell fragmentation: n = 4
Method: Specifically, the effects of (Ia) on oxidative stress in N27 neuronal cells, a dopaminergic cell line were studied. […]
The cells were then lysed, and DNA fragmentation was determined by ELISA assay.

[5] = Metabolic stability using rat liver microsomes; assay type: in vitro ADME; parameters: half-life: dose or concentration left out as unconfirmed; conditions: rat, rat liver microsomes, pH 7.4
Excerpt: as §1

[6] = Metabolic stability using dog liver microsomes; assay type: in vitro ADME; conditions: dog, dog liver microsomes, pH 7.4; DLM control (without NADPH)
Excerpt: as §2

[7] = Metabolic stability using human liver microsomes; assay type: in vitro ADME; conditions: human
Excerpt: as §2

[8] = matrix buffer (no microsomes, no NADPH), DLM/HLM study
[9] = matrix buffer (no microsomes, no NADPH), rat liver microsome study

## 1,2-dithiolane-2-pentanoic acid [lipoic acid]
[1]
  CLintr (mL/min/g liver): 0.9 mL/min/g liver
  Half life: >30 min
[1]; [8]
  % Metabolism in 30 minutes: 0%
[1]; [9]
  % Metabolism in 30 minutes: 0%
[1]; rat
  CLintr (mL/min/g liver): <0.6 mL/min/g liver
  Half life: >30 min
Rat liver microsomes; rat, microsomes
  CLintr (mL/min/g liver): <0.6 mL/min/g liver
  Half life: >30 min
[2]; dog, microsomes
  Half life: >30 min
[3]
  % Metabolism in 30 minutes: 0%
[3]; human, microsomes
  CLintr (mL/min/g liver): <0.6 mL/min/g liver
  Half life: >30 min
Sprague-Dawley rats; 5 mg/kg
  neuroprotection when administered just prior to the beginning of reperfusion: did not result in significant neuroprotection
Sprague-Dawley rats; I/R model
  most effective dose: 5 mg/kg
[4]
  SOD2 activity: increased SOD2 activity

## COc1cc(C(C)=O)ccc1O [Apocynin, 4-hydroxy-3-methoxyacetophenone]
N27 neuronal cells; pretreatment 100 μM
  DNA fragmentation induced by hydrogen peroxide reduced by: 41%
N27 neuronal cells; pretreatment 100 μM, then hydrogen peroxide (1 mM)
  DNA cell fragmentation: 244 ± 32 percentage of control
[1]; [8]
  half-life: > 30 min
  % Metabolism in 30 minutes: 1%
  CLintr (mL/min/g liver): <0.6 mL/min/g liver
[1]; [9]
  half-life: > 30 min
  % Metabolism in 30 minutes: 0%
  CLintr (mL/min/g liver): <0.6 mL/min/g liver
[5]; RLM, control (without NADPH)
  half-life at 0.5 µM: > 30 min
Rat liver microsomes; RLM, control (without NADPH)
  % Metabolism in 30 minutes: 2%
  CLintr (mL/min/g liver): <0.6 mL/min/g liver
Rat liver microsomes; RLM, reaction (with NADPH)
  % Metabolism in 30 minutes: 0%
  CLintr (mL/min/g liver): <0.6 mL/min/g liver
  Half life: >30 min
[6]
  half-life at 0.5 µM: > 30 min
[2]; DLM control (without NADPH)
  % Metabolism in 30 minutes: 0%
  CLintr (mL/min/g liver): <0.6 mL/min/g liver
[2]; DLM reaction (with NADPH)
  % Metabolism in 30 minutes: 30%
  CLintr (mL/min/g liver): 1.6 mL/min/g liver
  Half life: >30 min
[7]; human liver microsomes, HLM control (without NADPH)
  half-life: > 30 min
[3]; HLM control (without NADPH)
  % Metabolism in 30 minutes: 0%
  CLintr (mL/min/g liver): <0.6 mL/min/g liver
[3]; HLM reaction (with NADPH)
  % Metabolism in 30 minutes: 0%
  CLintr (mL/min/g liver): <0.6 mL/min/g liver
  Half life: >30 min
[4]
  SOD2 activity: ineffective

## c1ccc2c(c1)[I+]c1ccccc1-2 [DPI, diphenyleneiodonium]
N27 neuronal cells; pretreatment 10 μM
  DNA fragmentation induced by hydrogen peroxide reduced by: 48%
N27 neuronal cells; pretreatment 10 μM, then hydrogen peroxide (1 mM)
  DNA cell fragmentation: 208 ± 38 percentage of control

## OO [Hydrogen Peroxide, hydrogen peroxide]
N27 neuronal cells; hydrogen peroxide alone (6 hr)
  DNA cell fragmentation: 428 ± 52 percentage of control

## O=C(O)Cc1ccccc1Nc1c(Cl)cccc1Cl [diclofenac]
[5]; matrix RLM (positive control)
  half-life: 11 min
Rat liver microsomes; matrix RLM (positive control)
  % Metabolism in 30 minutes: 84%
  CLintr (mL/min/g liver): 6.4 mL/min/g liver
[7]; microsomes, matrix HLM (positive control)
  half-life: 9 min
[3]; matrix HLM (positive control)
  % Metabolism in 30 minutes: 92%
  CLintr (mL/min/g liver): 8.4 mL/min/g liver
